In patent US20090306093A1, “METHOD FOR TREATING PATIENT HAVING BENIGN PROSTATE HYPERPLASIA” (KAOHSIUNG MEDICAL UNIVERSITY, priority 2008, published 2009):

How the values were obtained:
[1] = test system: phenylephrine (10 μM) pre-contracted rat isolated prostate; test: Relaxation of phenylephrine pre-contracted rat isolated prostate strips (isometric tension); settings: for relaxation: 10 μM, 1 hour
Procedure: The rat isolated prostate tissue was prepared as previously described with modifications^[10]. Briefly, Wistar rats (300-400 g) were killed with pentobarbital sodium (30 mg/kg) and the ventral part of their prostates were quickly excised. […] O2 and 5% CO2.
Isometric tension was recorded with a force displacement transducer (UGO BASILE, Model 7004, Italy). After the equilibration period, the strips were primed twice by adding 10 μM of the agonist, phenylephrine, to reach 80-100% of maximum contraction. […] The relaxation on rat prostate by KMUP-1 (0.01-100 μM) and tamsulosin (0.001 nM-100 μM) were also tested by their combination with sildenafil (0.1 μM), respectively. In isolated prostate strips, while stable constriction to phenylephrine was reached, sildenafil (0.1 μM) was pre-incubation for 30 minutes, before the cumulative addition of KMUP-1 (0.01-100 μM) or tamsulosin (0.001 nM-100 μM) to isolated prostate strips. In another experiment, to examine the possible mechanism of action of KMUP-1, rat prostates were pretreated with ODQ (1H-[1,2,4]oxadiazolo[4,3-a]quinoxalin-1-one, 10 μM, sGC inhibitor), RP-8pCPT-cGMPs (10 μM, PKG inhibitor), glibenclamide (10 μM, KATP channel blocker), 4-AP (4-aminopyridine, 100 μM, voltage-dependent K^+ channel blocker), apamin (1 μM, Ca^2+-dependent K^+ channel blocker) and charybdotoxin (ChTX) (0.1 μM, Ca^2+-dependent K^+ channel blocker) for 30 minutes before addition of KMUP-1 (100 μM).

sGCa1 = test: Western blot of sGCa1 expression in rat prostate; settings: KMUP-1 10-100 μM; sildenafil, zaprinast 100 μM; 1 hour
Procedure: (§1) Prostate strips were incubated with KMUP-1 (10-100 μM), sildenafil (100 μM) and zaprinast (100 μM) in 10 mL Tyrode solution aerated with 95% O2 and 5% CO2 for 1 hour. To examine the possible mechanisms of KMUP-1 action, the rat prostate were pretreated with ODQ (10 μM), SQ22536 (10 μM) and RP-8pCPT-cGMPs (10 μM) for 30 minutes prior to the addition of KMUP-1 (100 μM).
(§2) In order to examine the expression of Rho kinase in prostate, the prostate strips were pre-incubated with phenylephrine (10 μM) for 30 minutes. After a pre-treatment of phenylephrine, KMUP-1 (10-100 μM) and Y-27632 (10 μM) were further incubated for 30 minutes. After the incubation time, the prostate were extracted with protein extraction reagent (Pierce Biotechnology, Inc., Rockford, Ill., USA.). The PZ-HPV-7 cells were incubated with and without KMUP-1 (0.1-10 μM) at 30 minutes, 8 and 24 hours. They were then washed rapidly with ice-cold PBS, incubated with protein extraction reagent, and scraped from the plates. The prostate tissues and cells were sonicated three times for 10 second each time and centrifuged at 13,000 rpm at 4° C. for 30 minutes. The protein concentrations of supernatants were determined, using bovine serum albumin as the standard. Tissue and cell extract protein were then boiled at a ratio of 4:1 with sample buffer (100 mM Tris, pH 6.8, 20% glycerol, 4% SDS, and 0.2% bromphenol blue). 40-60 μg protein was used in this experiment. Electrophoresis was performed using 10 or 12% SDS-polyacrylamide gel electrophoresis and then transferred to nitrocellulose membranes (Millipore Corporation, Billerica, Mass.). The membrane was blocked with Tris-buffered saline (20 mM Tris and 137 mM NaCl, pH 7.6) containing 0.1% Tween 20 (TTBS) and 5% non-fat milk at room temperature for 1 hour, washed with TTBS, and then incubated overnight at 4° C. in the appropriate primary antibody of PKG (Santa Cruz, 1:200), sGCa1 (Santa Cruz, 1:200), PKA (Abcam, 1:1000), ROCK2 (Upstate, 1:1000), and PDE5A (BD Biosciences, 1:1000), p21 (Upstate, 1:1000). The membranes were washed in TTBS before being incubated with horseradish peroxidase-conjugated antibody against mouse, goat, or rabbit IgG (Santa Cruz, 1:1000) for 1 hour. The membrane was then washed in TTBS and developed with the enhanced chemiluminescence (ECL) for the detection of the specific antigen. The intensity of the bands was measured by densitometry.

cGMP = test: Determination of cGMP in rat isolated prostate (radioimmunoassay); settings: 100 μM, 1 hour
Procedure: Isolated prostate strips from Wistar rats were prepared to determine prostate levels of cGMP and cAMP. Briefly, prostate strips were respectively incubated with KMUP-1 (10-100 μM), sildenafil (100 μM), and zaprinast (100 μM) in 10 mL Tyrode solution aerated with 95% O2 and 5% CO2 for 1 hour. To examine the possible mechanisms of action of KMUP-1, the rat prostate was pretreated with ODQ (10 μM, sGC inhibitor) and SQ22536 (9-(tetrahydro-2-furanyl)-9H-purin-6-amine, 10 μM, adenylyl cyclase inhibitor) for 30 minutes before KMUP-1 was added. After the incubation, the prostate tissues were extracted with 1 mL of 0.1 N HCl. The extracts were then lyophilized for a further measurement of cyclic GMP or cyclic AMP of each sample, using commercially available radioimmunoassay kits (Amersham Pharmacia Biotech, Buckinghamshire, England).

PKG = test: Western blot of PKG expression in rat prostate; settings: KMUP-1 10, 100 μM; sildenafil, zaprinast 100 μM
Procedure: as §1, §2

a1A-adrenergic receptor = settings: data from the reference; cited from earlier work
ROCK2 = test: Western blot of phenylephrine-induced Rho kinase (ROCK2) expression in rat prostate; settings: KMUP-1 10, 100 μM; Y-27632 10 μM; phenylephrine 10 μM
Procedure: as §2, with “The membrane was blocked with Tris-buffered saline (20 mM Tris and 137 mM NaCl, pH 7.6) containing 0.1% Tween 20 (TTBS) and 5% non-fat milk at room temperature for 1 hour, washed with TTBS, and then incubated overnight at 4° C. in the appropriate primary antibody of PKG (Santa Cruz, 1:200), sGCa1 (Santa Cruz, 1:200), PKA (Abcam, 1:1000), ROCK2 (Upstate, 1:1000), and PDE5A (BD Biosciences, 1:1000), p21 (Upstate, 1:1000). The membranes were washed in TTBS before being incubated with horseradish peroxidase-conjugated antibody against mouse, goat, or rabbit IgG (Santa Cruz, 1:1000) for 1 hour. The membrane was then washed in TTBS and developed with the enhanced chemiluminescence (ECL) for the detection of the specific antigen.” left out

[2] = phenylephrine 10 μM pre-contracted

Compound: CCCc1nn(C)c2c(=O)[nH]c(-c3cc(S(=O)(=O)N4CCN(C)CC4)ccc3OCC)nc12 [sildenafil, reference compound]
- relaxation ability ([1]; 0.1 μM, phenylephrine 10 μM pre-contracted): 21.50±2.12%
- relaxation [1, 2]: 50.00±6.37%
- relaxation ability ([1]; fourth value of the sentence, concentration not given): 78.00±8.02%
- expression of sGCa1 (sGCa1): do not significantly induce
- cGMP levels (cGMP): 3.20±0.61 pmol mg^−1 protein
- expression of PKG (PKG): significantly induce

Compound: Nc1nc2c(nc(Sc3ccc(Cl)cc3)n2C2O[C@@H]3COP(=O)(O)O[C@H]3[C@H]2O)c(=O)[nH]1 (stereo in doubt) [8-pCPT-cGMP, reference compound]
- relaxation [1, 2]: 35.00±4.40%

Compound: CCOc1ccccc1OCCN[C@H](C)Cc1ccc(OC)c(S(N)(=O)=O)c1 [tamsulosin, reference compound]
- relaxation [1, 2]: 107.50±6.76%
- relaxation activity ([1]; 100 μM combined with sildenafil 0.1 μM): 140.00±10.14%
- relaxation ability ([1]; 100 μM, phenylephrine 10 μM pre-contracted): 118.00±10.79%
- Receptor Affinity (pKi) a1A (a1A-adrenergic receptor): 9.7
- Selective Ratio a1A/a1B (a1A-adrenergic receptor): 6.3
- Selective Ratio a1A/a1D (a1A-adrenergic receptor): 0.2

Compound: COc1cc2nc(N3CCN(C(=O)C4COc5ccccc5O4)CC3)nc(N)c2cc1OC (centres unmarked) [doxazosin, reference compound]
- relaxation [1, 2]: 73.00±2.8%
- Receptor Affinity (pKi) a1A (a1A-adrenergic receptor): 8.56

Compound: CCCOc1ccccc1-c1nc2nn[nH]c2c(=O)[nH]1 [zaprinast, reference compound]
- relaxation [1, 2]: 79.00±5.00%
- expression of sGCa1 (sGCa1): do not significantly induce
- cGMP levels (cGMP): 2.23±0.24 pmol mg^−1 protein
- expression of PKG (PKG): significantly induce

Compound: C[C@@H](N)[C@H]1CC[C@H](C(=O)Nc2ccncc2)CC1 [Y-27632, reference compound]
- phenylephrine-induced Rho kinase expression (ROCK2): protected against phenylephrine-induced Rho kinase expression
